Reference: article PMC6934184, “Selective DNA-PKcs inhibition extends the therapeutic index of localized radiotherapy and chemotherapy” (The Journal of Clinical Investigation, 2019)

Target: T1, PIK3CA/PIK3R1 (p110α/p85α) (Homo sapiens, UniProt P42336)
T1 construct: purchased Thermo Fisher Scientific (Life Technologies) SelectScreen
Experiment: SelectScreen Adapta
Format: biochemical
How it was run: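 Percent values come from Thermo SelectScreen profiling of NU5455, combining activity and binding assays. CSF1R was run in Z'LYTE format at Km app ATP, and CAMK1 in Adapta format with ATP listed at 10.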

T1 sequence (P42336 whole entry): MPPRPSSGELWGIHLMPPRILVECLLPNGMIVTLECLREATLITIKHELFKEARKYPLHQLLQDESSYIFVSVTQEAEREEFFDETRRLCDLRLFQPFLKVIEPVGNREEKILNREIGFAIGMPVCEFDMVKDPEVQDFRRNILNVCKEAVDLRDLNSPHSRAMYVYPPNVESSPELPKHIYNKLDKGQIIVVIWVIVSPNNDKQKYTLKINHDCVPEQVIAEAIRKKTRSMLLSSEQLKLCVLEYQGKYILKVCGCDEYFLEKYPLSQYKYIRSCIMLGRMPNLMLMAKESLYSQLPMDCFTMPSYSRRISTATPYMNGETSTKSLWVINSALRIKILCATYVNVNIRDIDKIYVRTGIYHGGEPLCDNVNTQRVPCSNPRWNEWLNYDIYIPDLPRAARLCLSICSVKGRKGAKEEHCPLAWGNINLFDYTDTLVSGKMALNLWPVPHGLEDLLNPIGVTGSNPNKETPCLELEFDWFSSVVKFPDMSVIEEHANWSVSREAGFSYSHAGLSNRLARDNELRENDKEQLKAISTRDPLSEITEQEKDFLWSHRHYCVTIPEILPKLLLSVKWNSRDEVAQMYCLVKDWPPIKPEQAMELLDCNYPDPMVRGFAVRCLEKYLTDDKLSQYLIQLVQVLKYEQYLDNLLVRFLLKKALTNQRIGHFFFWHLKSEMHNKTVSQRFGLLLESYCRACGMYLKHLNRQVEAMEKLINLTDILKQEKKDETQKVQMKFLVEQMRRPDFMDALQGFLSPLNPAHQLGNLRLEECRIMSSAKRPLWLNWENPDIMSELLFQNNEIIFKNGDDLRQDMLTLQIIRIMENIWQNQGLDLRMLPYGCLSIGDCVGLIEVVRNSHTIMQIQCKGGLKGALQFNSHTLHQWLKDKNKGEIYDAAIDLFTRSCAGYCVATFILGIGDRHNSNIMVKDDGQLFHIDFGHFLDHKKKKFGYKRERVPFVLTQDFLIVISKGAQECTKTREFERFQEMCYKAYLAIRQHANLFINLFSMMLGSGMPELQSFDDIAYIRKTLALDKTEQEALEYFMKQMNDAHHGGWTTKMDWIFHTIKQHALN
T1 sequence (P27986 whole entry partner): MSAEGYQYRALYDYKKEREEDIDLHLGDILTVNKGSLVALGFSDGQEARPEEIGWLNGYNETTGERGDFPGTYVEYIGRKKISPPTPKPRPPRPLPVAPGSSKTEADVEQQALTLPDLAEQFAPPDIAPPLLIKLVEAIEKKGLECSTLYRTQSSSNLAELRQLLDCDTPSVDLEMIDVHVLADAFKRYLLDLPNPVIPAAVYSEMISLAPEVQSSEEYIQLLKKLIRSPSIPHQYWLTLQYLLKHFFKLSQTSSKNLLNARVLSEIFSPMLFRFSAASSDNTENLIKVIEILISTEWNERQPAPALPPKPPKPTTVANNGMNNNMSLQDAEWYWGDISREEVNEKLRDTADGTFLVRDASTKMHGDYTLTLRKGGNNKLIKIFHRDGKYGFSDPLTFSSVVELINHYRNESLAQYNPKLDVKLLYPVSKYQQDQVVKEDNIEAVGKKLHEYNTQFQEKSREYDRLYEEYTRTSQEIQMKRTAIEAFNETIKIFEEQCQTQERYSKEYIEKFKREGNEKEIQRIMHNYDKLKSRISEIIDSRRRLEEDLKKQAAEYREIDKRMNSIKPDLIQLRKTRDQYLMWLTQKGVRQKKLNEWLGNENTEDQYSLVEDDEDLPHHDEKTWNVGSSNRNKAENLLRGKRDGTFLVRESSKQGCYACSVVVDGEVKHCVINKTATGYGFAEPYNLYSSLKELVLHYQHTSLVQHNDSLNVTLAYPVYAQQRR

## CN(C(=O)CN1CCOCC1)c1ccc2sc3c(-c4cccc5c(=O)cc(N6CC7CCC(C6)O7)oc45)cccc3c2c1 [NU5455]
  inhibition at 1 µM: 4.2%
